According to patent publication US20090036473A1, “NOVEL QUINAZOLINONE DERIVATIVES AND THEIR MEDICAL USE” (priority 2006, published 2009):

Target: T1, human Kv72+3 channels (Homo sapiens, UniProt O43525+O43526)
T1 construct: expressed in transfected cells; host or cells: CHO K1 cells, stably expressing
Assay: patch-clamp set-up using CHO K1 cell lines stably expressing the human Kv72+3 channels
Format: cell-based
Details: at a concentration of 3 μM, CHO K1 cells stably expressing human Kv72+3 channels
Procedure: For example, at a concentration of 3 μM, Compound A4 induces an increase in current amplitude in the order 190%, which is an indication of its potent Kv72+3 activating activity.

increase in current amplitude: ~190%
Structure (SMILES): CC(C)c1nc2ccccc2c(=O)n1NC(=O)[C@@H]1C[C@H]1c1ccccc1 (relative stereo) [Compound A4, (Trans)-2-Phenyl-cyclopropanecarboxylic acid (2-isopropyl-4-oxo-4H-quinazolin-3-yl)-amide]
